Earlier results, collected in patent US12297406B2, “Method for preparing a composition comprising cetylated fatty acids” (ALESCO S.R.L., priority 2019, dated 2025).

Conditions: European Union food additive E319

CC(C)(C)c1cc(O)ccc1O [TBHQ, Tert-butyl-hydroquinone]
acceptable daily intake (ADI): 0.7 mg/kg of body weight
